According to PubChem BioAssay (NCI):
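1) Cells in 96-well plates. 2) Compound, 48 h, 5 concentrations. 3) Linear interpolation between surrounding doses. 4) Unreached endpoint = highest concentration. At the TGI there is no net growth.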

Tests used:
Test in all cases: DTP human tumour cell line panel, 48 h
786-0 renal = system: 786-0 renal
A498 renal = system: A498 renal
A549 NSCLC = system: A549 NSCLC
ACHN renal = system: ACHN renal
BT-549 breast = system: BT-549 breast
CAKI-1 renal = system: CAKI-1 renal
CCRF-CEM leukemia = system: CCRF-CEM leukemia
COLO 205 colon = system: COLO 205 colon
EKVX NSCLC = system: EKVX NSCLC
HCT-116 colon = system: HCT-116 colon
HCT-15 colon = system: HCT-15 colon
HL-60(TB) leukemia = system: HL-60(TB) leukemia
HOP-62 NSCLC = system: HOP-62 NSCLC
HOP-92 NSCLC = system: HOP-92 NSCLC
HS 578T breast = system: HS 578T breast
HT29 colon = system: HT29 colon
IGROV1 ovarian = system: IGROV1 ovarian
K-562 leukemia = system: K-562 leukemia
KM12 colon = system: KM12 colon
LOX IMVI melanoma = system: LOX IMVI melanoma
M14 melanoma = system: M14 melanoma
MALME-3M melanoma = system: MALME-3M melanoma
MCF7 breast = system: MCF7 breast
MDA-MB-231 breast = system: MDA-MB-231 breast
MDA-MB-435 = system: MDA-MB-435
MDA-N = system: MDA-N
MOLT-4 leukemia = system: MOLT-4 leukemia
NCI-H226 lung = system: NCI-H226 lung
NCI-H23 lung = system: NCI-H23 lung
NCI-H460 lung = system: NCI-H460 lung
NCI-H522 lung = system: NCI-H522 lung
NCI/ADR-RES ovarian = system: NCI/ADR-RES ovarian
OVCAR-3 ovarian = system: OVCAR-3 ovarian
OVCAR-4 ovarian = system: OVCAR-4 ovarian
OVCAR-5 ovarian = system: OVCAR-5 ovarian
OVCAR-8 ovarian = system: OVCAR-8 ovarian
PC-3 prostate = system: PC-3 prostate
RPMI-8226 leukemia = system: RPMI-8226 leukemia
RXF 393 renal = system: RXF 393 renal
SF-268 CNS = system: SF-268 CNS
SF-295 CNS = system: SF-295 CNS
SF-539 CNS = system: SF-539 CNS
SK-MEL-2 melanoma = system: SK-MEL-2 melanoma
SK-MEL-28 melanoma = system: SK-MEL-28 melanoma
SK-MEL-5 melanoma = system: SK-MEL-5 melanoma
SK-OV-3 ovarian = system: SK-OV-3 ovarian
SNB-19 CNS = system: SNB-19 CNS
SNB-75 CNS = system: SNB-75 CNS
SR leukemia = system: SR leukemia
SW-620 colon = system: SW-620 colon
T-47D breast = system: T-47D breast
TK-10 renal = system: TK-10 renal
U251 CNS = system: U251 CNS
UACC-257 melanoma = system: UACC-257 melanoma
UACC-62 melanoma = system: UACC-62 melanoma
UO-31 renal = system: UO-31 renal
DU-145 prostate = system: DU-145 prostate
HCC-2998 colon = system: HCC-2998 colon
SN12C renal = system: SN12C renal

`CC(CCc1ccccc1)NCC(O)n1c(/N=N/N(C)C)nc2c1c(=O)n(C)c(=O)n2C` (stereo unspecified) gave a TGI (786-0 renal) greater than 100 µM, a TGI (A498 renal) greater than 100 µM and a TGI (A549 NSCLC) greater than 100 µM. It also gave a TGI (ACHN renal) greater than 100 µM, a TGI (BT-549 breast) greater than 100 µM and a TGI (CAKI-1 renal) greater than 100 µM. It also gave a TGI (CCRF-CEM leukemia) greater than 100 µM, a TGI (COLO 205 colon) greater than 100 µM and a TGI (EKVX NSCLC) greater than 100 µM. For the same molecule, the TGI (HCT-116 colon) was greater than 100 µM, the TGI (HCT-15 colon) was greater than 100 µM and the TGI (HL-60(TB) leukemia) was greater than 100 µM. The TGI (HOP-62 NSCLC) was greater than 100 µM, the TGI (HOP-92 NSCLC) was greater than 100 µM and the TGI (HS 578T breast) was greater than 100 µM. For the same molecule, the TGI (HT29 colon) was greater than 100 µM, the TGI (IGROV1 ovarian) was greater than 100 µM and the TGI (K-562 leukemia) was greater than 100 µM. The TGI (KM12 colon) was greater than 100 µM, the TGI (LOX IMVI melanoma) was greater than 100 µM and the TGI (M14 melanoma) was greater than 100 µM. For the same molecule, the TGI (MALME-3M melanoma) was greater than 100 µM, the TGI (MCF7 breast) was greater than 100 µM and the TGI (MDA-MB-231 breast) was greater than 100 µM. For the same molecule, the TGI (MDA-MB-435) was greater than 100 µM, the TGI (MDA-N) was greater than 100 µM and the TGI (MOLT-4 leukemia) was greater than 100 µM. It also gave a TGI (NCI-H226 lung) greater than 100 µM, a TGI (NCI-H23 lung) greater than 100 µM and a TGI (NCI-H460 lung) greater than 100 µM. The TGI (NCI-H522 lung) was greater than 100 µM, the TGI (NCI/ADR-RES ovarian) was greater than 100 µM and the TGI (OVCAR-3 ovarian) was greater than 100 µM. For the same molecule, the TGI (OVCAR-4 ovarian) was greater than 100 µM, the TGI (OVCAR-5 ovarian) was greater than 100 µM and the TGI (OVCAR-8 ovarian) was greater than 100 µM. The TGI (PC-3 prostate) was greater than 100 µM, the TGI (RPMI-8226 leukemia) was greater than 100 µM and the TGI (RXF 393 renal) was greater than 100 µM. The TGI (SF-268 CNS) was greater than 100 µM, the TGI (SF-295 CNS) was greater than 100 µM and the TGI (SF-539 CNS) was greater than 100 µM. The TGI (SK-MEL-2 melanoma) was greater than 100 µM, the TGI (SK-MEL-28 melanoma) was greater than 100 µM and the TGI (SK-MEL-5 melanoma) was greater than 100 µM. For the same molecule, the TGI (SK-OV-3 ovarian) was greater than 100 µM, the TGI (SNB-19 CNS) was greater than 100 µM and the TGI (SNB-75 CNS) was greater than 100 µM. For the same molecule, the TGI (SR leukemia) was greater than 100 µM, the TGI (SW-620 colon) was greater than 100 µM and the TGI (T-47D breast) was greater than 100 µM. The TGI (TK-10 renal) was greater than 100 µM, the TGI (U251 CNS) was greater than 100 µM and the TGI (UACC-257 melanoma) was greater than 100 µM. The TGI (UACC-62 melanoma) was greater than 100 µM and the TGI (UO-31 renal) was greater than 100 µM.

`CC1=C(C(=O)OCCc2ccc([N+](=O)[O-])cc2)C(c2cccc([N+](=O)[O-])c2)C(C(=O)OC(C)C)=C(C)N1` (stereo unspecified) was tested, and the TGI (786-0 renal) was greater than 100 µM, the TGI (A549 NSCLC) was greater than 100 µM and the TGI (ACHN renal) was greater than 100 µM. For the same molecule, the TGI (BT-549 breast) was greater than 100 µM, the TGI (CAKI-1 renal) was greater than 100 µM and the TGI (CCRF-CEM leukemia) was greater than 100 µM. For the same molecule, the TGI (COLO 205 colon) was greater than 100 µM, the TGI (DU-145 prostate) was greater than 100 µM and the TGI (EKVX NSCLC) was greater than 100 µM. For the same molecule, the TGI (HCC-2998 colon) was greater than 100 µM, the TGI (HCT-116 colon) was greater than 100 µM and the TGI (HCT-15 colon) was greater than 100 µM. For the same molecule, the TGI (HOP-62 NSCLC) was greater than 100 µM, the TGI (HS 578T breast) was greater than 100 µM and the TGI (HT29 colon) was greater than 100 µM. The TGI (IGROV1 ovarian) was greater than 100 µM, the TGI (K-562 leukemia) was greater than 100 µM and the TGI (KM12 colon) was greater than 100 µM. For the same molecule, the TGI (LOX IMVI melanoma) was greater than 100 µM, the TGI (M14 melanoma) was greater than 100 µM and the TGI (MALME-3M melanoma) was greater than 100 µM. It also gave a TGI (MCF7 breast) greater than 100 µM, a TGI (MDA-MB-435) greater than 100 µM and a TGI (MDA-N) greater than 100 µM. For the same molecule, the TGI (MOLT-4 leukemia) was greater than 100 µM, the TGI (NCI-H226 lung) was greater than 100 µM and the TGI (NCI-H23 lung) was greater than 100 µM. For the same molecule, the TGI (NCI-H460 lung) was greater than 100 µM, the TGI (NCI-H522 lung) was 7.71 µM and the TGI (NCI/ADR-RES ovarian) was greater than 100 µM. The TGI (OVCAR-3 ovarian) was greater than 100 µM, the TGI (OVCAR-4 ovarian) was greater than 100 µM and the TGI (OVCAR-5 ovarian) was greater than 100 µM. The TGI (OVCAR-8 ovarian) was greater than 100 µM, the TGI (PC-3 prostate) was greater than 100 µM and the TGI (RXF 393 renal) was greater than 100 µM. The TGI (SF-268 CNS) was greater than 100 µM, the TGI (SF-295 CNS) was greater than 100 µM and the TGI (SF-539 CNS) was greater than 100 µM. The TGI (SK-MEL-2 melanoma) was greater than 100 µM, the TGI (SK-MEL-28 melanoma) was greater than 100 µM and the TGI (SK-MEL-5 melanoma) was 7.25 µM. It also gave a TGI (SK-OV-3 ovarian) greater than 100 µM, a TGI (SN12C renal) greater than 100 µM and a TGI (SNB-19 CNS) greater than 100 µM. It also gave a TGI (SNB-75 CNS) of 76.7 µM, a TGI (SR leukemia) greater than 100 µM and a TGI (SW-620 colon) greater than 100 µM. For the same molecule, the TGI (T-47D breast) was greater than 100 µM, the TGI (TK-10 renal) was greater than 100 µM and the TGI (U251 CNS) was greater than 100 µM. For the same molecule, the TGI (UACC-257 melanoma) was greater than 100 µM, the TGI (UACC-62 melanoma) was greater than 100 µM and the TGI (UO-31 renal) was greater than 100 µM.

`COc1cc(S(=O)(=O)Nc2ccc(-c3csc(N4C(=O)C(C)SC4c4cccc(Oc5ccccc5)c4)n3)cc2)ccc1Cl` (stereo unspecified) showed a TGI (A498 renal) of 79.3 µM, a TGI (A549 NSCLC) greater than 100 µM and a TGI (ACHN renal) greater than 100 µM. It also gave a TGI (BT-549 breast) greater than 100 µM, a TGI (CAKI-1 renal) greater than 100 µM and a TGI (CCRF-CEM leukemia) greater than 100 µM. It also gave a TGI (COLO 205 colon) greater than 100 µM, a TGI (DU-145 prostate) greater than 100 µM and a TGI (EKVX NSCLC) greater than 100 µM. For the same molecule, the TGI (HCT-116 colon) was greater than 100 µM, the TGI (HCT-15 colon) was greater than 100 µM and the TGI (HL-60(TB) leukemia) was 67.2 µM. It also gave a TGI (HOP-62 NSCLC) greater than 100 µM, a TGI (HOP-92 NSCLC) greater than 100 µM and a TGI (HS 578T breast) greater than 100 µM. For the same molecule, the TGI (HT29 colon) was greater than 100 µM, the TGI (IGROV1 ovarian) was greater than 100 µM and the TGI (K-562 leukemia) was greater than 100 µM. For the same molecule, the TGI (KM12 colon) was greater than 100 µM, the TGI (LOX IMVI melanoma) was greater than 100 µM and the TGI (M14 melanoma) was greater than 100 µM. For the same molecule, the TGI (MALME-3M melanoma) was greater than 100 µM, the TGI (MCF7 breast) was 72.2 µM and the TGI (MDA-MB-435) was greater than 100 µM. The TGI (MDA-N) was greater than 100 µM, the TGI (MOLT-4 leukemia) was greater than 100 µM and the TGI (NCI-H226 lung) was greater than 100 µM. It also gave a TGI (NCI-H23 lung) greater than 100 µM, a TGI (NCI-H522 lung) greater than 100 µM and a TGI (NCI/ADR-RES ovarian) greater than 100 µM. The TGI (OVCAR-3 ovarian) was greater than 100 µM, the TGI (OVCAR-5 ovarian) was greater than 100 µM and the TGI (OVCAR-8 ovarian) was greater than 100 µM. For the same molecule, the TGI (PC-3 prostate) was greater than 100 µM, the TGI (RPMI-8226 leukemia) was greater than 100 µM and the TGI (RXF 393 renal) was 88.2 µM. It also gave a TGI (SF-268 CNS) greater than 100 µM, a TGI (SF-295 CNS) greater than 100 µM and a TGI (SF-539 CNS) greater than 100 µM. The TGI (SK-MEL-2 melanoma) was greater than 100 µM, the TGI (SK-MEL-28 melanoma) was greater than 100 µM and the TGI (SK-MEL-5 melanoma) was greater than 100 µM. For the same molecule, the TGI (SK-OV-3 ovarian) was greater than 100 µM, the TGI (SN12C renal) was greater than 100 µM and the TGI (SNB-19 CNS) was greater than 100 µM. For the same molecule, the TGI (SNB-75 CNS) was greater than 100 µM, the TGI (SR leukemia) was greater than 100 µM and the TGI (SW-620 colon) was greater than 100 µM. For the same molecule, the TGI (T-47D breast) was greater than 100 µM, the TGI (UACC-62 melanoma) was greater than 100 µM and the TGI (UO-31 renal) was greater than 100 µM.
